Results reported in patent US6355481B1, “Hybridoma cell line and monoclonal antibody for huntingtin protein” (Emory University, priority 1999, dated 2002).

Columns and labels:
20Q cells [1] = assay: EM48 immunofluorescence and Hoechst staining after LMB, 20Q cells; format: cell-based, rat; settings: LMB 10 nM
Procedure: (§1) Immunofluorescent labeling of cultured cells. Transfected cells grown in chamber slides were fixed in 4% paraformaldehyde in PBS for 15 min, permeabilized with 0.4% Triton X-100 in PBS for 30 min, blocked with 5% normal goat serum (NGS) in PBS for 1 hr, and incubated with primary antibodies in 2% NGS and PBS overnight at 4° C. After several washes, the cells were incubated with secondary antibodies conjugated with either FITC or rhodamine (Jackson ImmunoResearch, West Grove, Pa.). Hoechst dye (1 μg/ml) was used to label the nuclei. A Zeiss fluorescent microscope (Axioskop 2) and video system (Dage-MTI, Michigan City, Ind.) were used to capture images. The captured images were stored and processed using Adobe Photoshop software. Cell viability and apoptosis assays. […] PC12 cells were plated in 96-well plates at a density of 10,000 cells/well and maintained 16-24 hr in complete medium. […] Leptomycin B (LMB; 10 nM) [provided by Dr. Minoru Yoshida (Kudo et al. (1997) J. Biol. Chem. 272:29742-29751)] was added to the medium for 12-16 hr. After drug treatment, 20 μl of MTS reagent (2.1 mg/ml) was added to each well. The cells were then incubated for 30-45 min at 37° C. in a 5% CO2 incubator. The reaction was stopped by adding 25 μl of 10% SDS. The plates were read with a microplate reader (SPECTRAmax Plus; Molecular Devices, Palo Alto, Calif.) at 490 nm. […]

150Q cells [2] = assay: Cell viability (MTS) assay, 150Q cells; format: cell-based, rat
Procedure: Cell viability and apoptosis assays. […] PC12 cells were plated in 96-well plates at a density of 10,000 cells/well and maintained 16-24 hr in complete medium. […] Leptomycin B (LMB; 10 nM) [provided by Dr. Minoru Yoshida (Kudo et al. (1997) J. Biol. […] After drug treatment, 20 μl of MTS reagent (2.1 mg/ml) was added to each well. The cells were then incubated for 30-45 min at 37° C. in a 5% CO2 incubator. The reaction was stopped by adding 25 μl of 10% SDS. The plates were read with a microplate reader (SPECTRAmax Plus; Molecular Devices, Palo Alto, Calif.) at 490 nm. Each data point was obtained using a triplet-well assay.

150Q cells [3] = assay: EM48 immunofluorescence and Hoechst staining after LMB, 150Q cells; format: cell-based, rat; settings: LMB 10 nM
Procedure: as §1

parental PC12 cells [4] = assay: Neurite outgrowth assay, parental PC12 cells; format: cell-based, rat; settings: for neurite outgrowth promoted by growth factor: control/parental PC12 cells, IL-6 20 ng/ml, CNTF 20 ng/ml, EGF 10 ng/ml, bFGF 20 ng/ml
Procedure: To evaluate neurite outgrowth, we plated the cells at low density (2×10^4 Cells/cm^2) onto six-well plates. Cell cultures were treated with NGF (100 ng/ml) for 48 hr or with staurosporine (50-100 nM) and EGF (10 ng/ml) for 16 hr and were fixed with 4% paraformaldehyde in PBS for 15 min. After several washes with PBS, cells with neurites exceeding the cell diameter were counted using an inverted microscope (Olympus Optical CK2, Tokyo, Japan). At the same time, five to seven images (10×) were captured by a Pixera camera, and the percentage of cells with neurites was confirmed by analyzing these images. On average, 500-800 cells were counted for each group.

[5] = tested on: PC12 cells expressing the 150Q mutant HD exon-1 protein (150Q cells); assay: Neurite outgrowth assay, 150Q cells; format: cell-based, rat
From the text: (§2) Huntingtin constructs, transfection, and selection of stably transfected cell lines. A partial huntingtin CDNA containing 20 (20Q) or 150 CAG repeats was isolated from a lambda phage DNA that contains exon-1 of the human HD gene [provided by Dr. Gillian Bates (Mangiarini et al. (1996) Cell 87:493-506)]. The N-terminal huntingtin fragments encoded by these cDNAs were expressed using the pCIS expression vector that carries a cytomegalovirus promoter (Li et al. (1998) Hum. Molec. Genet. 7:777-782). The pCDNA3 vector, which carries the G418 resistance gene (Invitrogen, San Diego, Calif.), was cotransfected with the pCIS-huntingtin constructs. Subconfluent PC12 cells in 80 mm dishes were transfected with 7 μg of plasmid DNA and 10 μg/ml lipofectAMINE (Life Technologies) per dish. The transfected cells were then selected in the presence of 500 μg/ml G418 in DM EM plus 5% fetal bovine serum and 10% horse serum. Selected G418-resistant cells were subcloned and maintained in the same conditioned medium until each cell line contained homogenous transfected cells. […]
(§3) To evaluate neurite outgrowth, we plated the cells at low density (2×10^4 Cells/cm^2) onto six-well plates. […] After several washes with PBS, cells with neurites exceeding the cell diameter were counted using an inverted microscope (Olympus Optical CK2, Tokyo, Japan). […] On average, 500-800 cells were counted for each group.

parental PC12 cells [6] = settings: PC12 cells (Yao et al. 1997); cited from earlier work
20Q cells [7] = assay: Cell viability (MTS) assay, 20Q cells; format: cell-based, rat; settings: 20Q cells vs parental PC12 cells, >250 nM staurosporine
Procedure: Cell viability was determined by a modified 3-(4,5-dimethylthiazol-2-yl)-2,5-diphenyltetrazohum bromide (MTS) assay (Cell Titer 96; Promega), which is based on the conversion of tetrazolium salt 3-(4,5-dimethylthiazol-2-yl)-5-(3-carboxymethoxyphenyl)-2-(4-sulfophenyl) 2-H-tetrazolium by mitochondrial dehydrogenase to a formazan product, as measured at an absorbance of 490 nm. PC12 cells were plated in 96-well plates at a density of 10,000 cells/well and maintained 16-24 hr in complete medium. Cells were then changed to medium containing 1% FBS in the absence or presence of staurosporine at different concentrations. Staurosporine was dissolved in 2 mM dimethylsulfoxide (DMSO) and diluted in the medium at various concentrations. […] After drug treatment, 20 μl of MTS reagent (2.1 mg/ml) was added to each well. The cells were then incubated for 30-45 min at 37° C. in a 5% CO2 incubator. The reaction was stopped by adding 25 μl of 10% SDS. The plates were read with a microplate reader (SPECTRAmax Plus; Molecular Devices, Palo Alto, Calif.) at 490 nm. Each data point was obtained using a triplet-well assay.

parental PC12 cells [8] = assay: Trypan blue exclusion cell death assay, parental PC12 cells; format: cell-based, rat; settings: 100 nm staurosporine
Procedure: (§4) Cell death rate and neurite outgrowth assays. Cells were plated at a standard density (4×10^4/cm^2) in six-well plates with DMEM supplemented with 5% FBS and 10% horse serum. Cultured cells were harvested, centrifuged at 1000 rpm for 5 min, and resuspended in PBS containing 0.4% trypan blue. The cells were incubated in the trypan blue solution for 10 min and transferred to a hemocytometer, and the number of viable (phase bright) and nonviable (blue) cells was recorded. For each sample, cell counts in four corner fields of the hemocytometer were averaged.

150Q cells [9] = assay: Trypan blue exclusion cell death assay, 150Q cells; format: cell-based, rat
Procedure: as §4

[10] = tested on: PC12 cells expressing the 20Q HD exon-1 protein (20Q cells); assay: Neurite outgrowth assay, 20Q cells; format: cell-based, rat; settings: IL-6 20 ng/ml
From the text: as §2, §3

[11] = 150Q cells treated with EGF and staurosporine together

CCC(=C/[C@H](C)C/C=C/C(C)=C/[C@@H](C)C(=O)[C@@H](C)[C@H](O)[C@@H](C)C/C(C)=C/C(=O)O)/C=C/[C@@H]1OC(=O)C=C[C@@H]1C [LMB, Leptomycin B]
DNA fragmentation after LMB (20Q cells [1]): very few LMB-treated 20Q cells had DNA fragmentation
nuclear labeling after LMB (20Q cells [1]): increased the nuclear labeling of some 20Q cells
cell viability after exposure to LMB (150Q cells [2]; 150Q cells vs control cells, LMB 10 nM): more 150Q cells than control cells were dying
DNA fragmentation after LMB (150Q cells [3]): more 150Q cells showed DNA fragmentation
intranuclear EM48 labeling after LMB (150Q cells [3]; vs without LMB): more 150Q cells had intense intranuclear EM48 labeling

CN[C@@H]1C[C@H]2O[C@@](C)([C@@H]1OC)n1c3ccccc3c3c4c(c5c6ccccc6n2c5c31)C(=O)NC4 [staurosporine]
neurite outgrowth with staurosporine (parental PC12 cells [4]; parental PC12 cells, 100 nm staurosporine): grew neurites
susceptibility to staurosporine (cell viability) (150Q cells [2]; 150Q cells vs 20Q or parental PC12 cells, 10-125 nM staurosporine): more susceptible
neurite outgrowth with staurosporine ([5]; 150Q cells, 100 nm staurosporine, living cells): some of the living 150Q cells displayed neurite outgrowth
time to initiation of neurite outgrowth (parental PC12 cells [6]): 4 to 6 h
cell killing by higher doses of staurosporine (20Q cells [7]): killed more 20Q cells than parental PC12 cells
cell death with staurosporine (parental PC12 cells [8]): without displaying significant cell death
cell death with staurosporine (150Q cells [9]; 150Q cells, 100 nm staurosporine): killed a significant number of 150Q cells

EGF: epidermal growth factor (NSDSECPLSHDGYCLHDGVCMYIEALDKYACNCVVGYIGERCQYRDLKWWELR; Epidermal growth factor; UniProt P01133 971-1023, looked up)
neurite outgrowth promoted by growth factor (parental PC12 cells [4]): very weak effect
effect of EGF on cell viability (150Q cells [2]; 150Q cells, EGF 10 ng/ml in the presence of 10-100 nM staurosporine): significantly increased cell viability
effect of EGF on neurite outgrowth [5, 11]: significantly enhanced neurite outgrowth
effect of EGF on cell death (150Q cells [9]; [11]): reduced cell death

IL-6: interleukin-6
neurite outgrowth promoted by growth factor (parental PC12 cells [4]): promoted neurite outgrowth
neurite outgrowth promoted by growth factor [10]: promoted neurite outgrowth
